# Results taken from ChEMBL document CHEMBL1133309, “Computational binding studies of human pp60c-src SH2 domain with a series of nonpeptide, phosphophenyl-containing ligands” (Bioorg Med Chem Lett, 2000).
# Target: Proto-oncogene tyrosine-protein kinase Src (Homo sapiens, UniProt P12931)
# Experiment: Binding affinity for Human pp60c-src SH2 domain
# Sequence of Proto-oncogene tyrosine-protein kinase Src (P12931 2-536 limits assumed): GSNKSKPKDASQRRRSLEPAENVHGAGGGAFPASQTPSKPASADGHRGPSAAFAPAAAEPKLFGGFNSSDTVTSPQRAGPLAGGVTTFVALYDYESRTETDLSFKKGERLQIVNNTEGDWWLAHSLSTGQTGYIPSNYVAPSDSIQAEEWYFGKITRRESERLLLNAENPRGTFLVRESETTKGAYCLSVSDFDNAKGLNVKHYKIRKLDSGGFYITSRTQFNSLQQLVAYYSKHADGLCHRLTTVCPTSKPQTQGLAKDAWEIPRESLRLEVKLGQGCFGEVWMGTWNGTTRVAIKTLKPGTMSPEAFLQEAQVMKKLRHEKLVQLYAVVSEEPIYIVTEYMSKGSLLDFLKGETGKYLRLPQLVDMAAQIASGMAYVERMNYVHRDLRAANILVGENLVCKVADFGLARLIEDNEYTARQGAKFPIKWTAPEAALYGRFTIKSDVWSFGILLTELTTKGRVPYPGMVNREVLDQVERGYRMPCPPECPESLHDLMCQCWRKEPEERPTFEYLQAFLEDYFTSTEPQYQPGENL
row,IC50,SMILES
1,> 100 µM,O=C(NCc1ccc(OCC2CCCCC2)cc1)c1ccc(OP(=O)(O)O)cc1
2,30 µM,CNC(=O)c1cc(CNC(=O)c2ccc(OP(=O)(O)O)cc2)ccc1OCC1CCCCC1
3,69 µM,CC(=O)c1cc(CNC(=O)c2ccc(OP(=O)(O)O)cc2)ccc1OCC1CCCCC1
